Data reported in the supplement of paper PMC10627819.

How the values were obtained:
B. subtilis 168 [1] = assay: fitness (endpoint OD595 vs no drug) (fraction); higher = more growth
Method in brief: (§1)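 At 37 °C, bacteria in TSB, LB Lennox or CY were grown in 384-well plates from a starting OD595 of 0.01. OD595 was measured every 30 min for 14 h, with the first reading used as background. Fitness is the optical density at the switch to stationary phase as a fraction of the robust mean of no-drug control wells, capped at 1.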

S. aureus DSM 20231 [2] = assay: as above
Method in brief: as §1

S. aureus Newman [3] = assay: as above
Method in brief: as §1

S. pneumoniae D39V [4] = assay: as above
Method in brief: as §1

B. subtilis 168 [5] = assay: Bliss interaction score (quartile over a dose matrix) (fitness difference); higher = more antagonism (negative = synergy)
Method in brief: (§2)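 Values were capped at 1 after dividing OD595 at stationary-phase entry by the plate's robust no-drug mean. This ratio is fitness, and single-drug fitness was inferred from the combination data. The Bliss score is observed minus product-expected fitness, given as quartiles over technical, biological and donor/recipient replicates.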

S. aureus DSM 20231 [6] = assay: as above
Method in brief: as §2

S. aureus Newman [7] = assay: as above
Method in brief: as §2

S. pneumoniae D39V [8] = assay: as above
Method in brief: as §2
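Wherever Bliss interaction score (quartile over a dose matrix) is given: first quartile when negative (synergy) and third quartile when positive (antagonism).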

Cc1onc(-c2ccccc2)c1C(=O)N[C@@H]1C(=O)N2[C@@H]1SC(C)(C)[C@@H]2C(=O)O [Oxacillin] + CN[C@@H]1[C@H](O)[C@H](NC)[C@H]2O[C@@]3(O)C(=O)C[C@@H](C)O[C@H]3O[C@@H]2[C@H]1O [Spectinomycin]
fitness
Settings	partner 2 µg/mL	partner 4 µg/mL	partner 8 µg/mL	partner 16 µg/mL
B. subtilis 168 [1], first compound 0.002 µg/mL	0.966	0.984	0.899	–
B. subtilis 168 [1], first compound 0.004 µg/mL	≥ 1	≥ 1	0.874	–
B. subtilis 168 [1], first compound 0.008 µg/mL	0.982	0.993	0.87	–
S. aureus DSM 20231 [2], first compound 0.0156 µg/mL	–	0.779	0.802	0.764
S. aureus DSM 20231 [2], first compound 0.0312 µg/mL	–	0.681	0.684	0.665
S. aureus DSM 20231 [2], first compound 0.0625 µg/mL	–	0.482	0.497	0.489
S. aureus Newman [3], first compound 0.0156 µg/mL	–	0.757	0.751	0.766
S. aureus Newman [3], first compound 0.0312 µg/mL	–	0.688	0.672	0.586
S. aureus Newman [3], first compound 0.0625 µg/mL	–	0.596	0.555	0.528
S. pneumoniae D39V [4], first compound 0.01 µg/mL	–	0.94	0.93	0.819
S. pneumoniae D39V [4], first compound 0.02 µg/mL	–	0.884	0.889	0.788
S. pneumoniae D39V [4], first compound 0.04 µg/mL	–	0.373	0.455	0.415

fitness, one replicate
Settings	first compound 0.0156 µg/mL	first compound 0.0312 µg/mL	first compound 0.0625 µg/mL	first compound 0.075 µg/mL	first compound 0.15 µg/mL	first compound 0.3 µg/mL
B. subtilis 168 [1], partner 2 µg/mL	–	–	–	0.467	0.0332	0.0357
B. subtilis 168 [1], partner 4 µg/mL	–	–	–	0.394	0.034	0.0431
B. subtilis 168 [1], partner 8 µg/mL	–	–	–	0.0241	0.0342	0.0299
S. aureus DSM 20231 [2], partner 32 µg/mL	0.601	0.628	0.509	–	–	–
S. aureus DSM 20231 [2], partner 64 µg/mL	0.0615	0.0592	0.0362	–	–	–
S. aureus Newman [3], partner 32 µg/mL	0.483	0.272	0.135	–	–	–
S. aureus Newman [3], partner 64 µg/mL	0.0551	0.0867	0.0035	–	–	–

Settings	Bliss interaction score
B. subtilis 168 [5]	0.0285
S. aureus DSM 20231 [6]	-0.0526
S. aureus Newman [7]	-0.0743
S. pneumoniae D39V [8]	0.0929

Cc1onc(-c2ccccc2)c1C(=O)N[C@@H]1C(=O)N2[C@@H]1SC(C)(C)[C@@H]2C(=O)O [Oxacillin] + COc1ccc(C[C@H](N)C(=O)N[C@H]2[C@@H](O)[C@H](n3cnc4c(N(C)C)ncnc43)O[C@@H]2CO)cc1 [Puromycin]
Settings	fitness
B. subtilis 168 [1], first compound 0.002 µg/mL, partner 0.39 µg/mL	0.98
B. subtilis 168 [1], first compound 0.002 µg/mL, partner 0.78 µg/mL	0.966
B. subtilis 168 [1], first compound 0.002 µg/mL, partner 1.56 µg/mL	0.932
B. subtilis 168 [1], first compound 0.004 µg/mL, partner 0.39 µg/mL	0.974
B. subtilis 168 [1], first compound 0.004 µg/mL, partner 0.78 µg/mL	0.914
B. subtilis 168 [1], first compound 0.004 µg/mL, partner 1.56 µg/mL	0.9
B. subtilis 168 [1], first compound 0.008 µg/mL, partner 0.39 µg/mL	0.88
B. subtilis 168 [1], first compound 0.008 µg/mL, partner 0.78 µg/mL	0.879
B. subtilis 168 [1], first compound 0.008 µg/mL, partner 1.56 µg/mL	0.864
S. aureus DSM 20231 [2], first compound 0.0156 µg/mL, partner 0.39 µg/mL	0.84
S. aureus DSM 20231 [2], first compound 0.0156 µg/mL, partner 0.78 µg/mL	0.902
S. aureus DSM 20231 [2], first compound 0.0156 µg/mL, partner 1.56 µg/mL	0.91
S. aureus DSM 20231 [2], first compound 0.0312 µg/mL, partner 0.39 µg/mL	0.72
S. aureus DSM 20231 [2], first compound 0.0312 µg/mL, partner 0.78 µg/mL	0.737
S. aureus DSM 20231 [2], first compound 0.0312 µg/mL, partner 1.56 µg/mL	0.748
S. aureus DSM 20231 [2], first compound 0.0625 µg/mL, partner 0.39 µg/mL	0.481
S. aureus DSM 20231 [2], first compound 0.0625 µg/mL, partner 0.78 µg/mL	0.555
S. aureus DSM 20231 [2], first compound 0.0625 µg/mL, partner 1.56 µg/mL	0.546
S. aureus Newman [3], first compound 0.0156 µg/mL, partner 0.78 µg/mL	0.85
S. aureus Newman [3], first compound 0.0156 µg/mL, partner 1.56 µg/mL	0.806
S. aureus Newman [3], first compound 0.0312 µg/mL, partner 0.39 µg/mL	0.765
S. aureus Newman [3], first compound 0.0312 µg/mL, partner 0.78 µg/mL	0.788
S. pneumoniae D39V [4], first compound 0.01 µg/mL, partner 1 µg/mL	≥ 1
S. pneumoniae D39V [4], first compound 0.01 µg/mL, partner 2 µg/mL	0.969
S. pneumoniae D39V [4], first compound 0.01 µg/mL, partner 4 µg/mL	0.918
S. pneumoniae D39V [4], first compound 0.02 µg/mL, partner 1 µg/mL	0.984
S. pneumoniae D39V [4], first compound 0.02 µg/mL, partner 2 µg/mL	0.949
S. pneumoniae D39V [4], first compound 0.02 µg/mL, partner 4 µg/mL	0.863
S. pneumoniae D39V [4], first compound 0.04 µg/mL, partner 1 µg/mL	0.668
S. pneumoniae D39V [4], first compound 0.04 µg/mL, partner 2 µg/mL	0.644
S. pneumoniae D39V [4], first compound 0.04 µg/mL, partner 4 µg/mL	0.281

fitness, one replicate
Settings	first compound 0.0156 µg/mL	first compound 0.0312 µg/mL	first compound 0.0625 µg/mL	first compound 0.075 µg/mL	first compound 0.15 µg/mL	first compound 0.3 µg/mL
B. subtilis 168 [1], partner 0.39 µg/mL	–	–	–	0.523	0.0695	0.0402
B. subtilis 168 [1], partner 0.78 µg/mL	–	–	–	0.645	0.0521	0.0336
B. subtilis 168 [1], partner 1.56 µg/mL	–	–	–	0.632	0.0547	0.0573
S. aureus DSM 20231 [2], partner 3.12 µg/mL	0.887	0.788	0.66	–	–	–
S. aureus DSM 20231 [2], partner 6.24 µg/mL	0.609	0.606	0.548	–	–	–

Settings	Bliss interaction score
B. subtilis 168 [5]	0.0568
S. aureus DSM 20231 [6]	0.0572
S. aureus Newman [7]	0.0763
S. pneumoniae D39V [8]	0.167

Cc1onc(-c2ccccc2)c1C(=O)N[C@@H]1C(=O)N2[C@@H]1SC(C)(C)[C@@H]2C(=O)O [Oxacillin] + C[n+]1ccc(-c2cc[n+](C)cc2)cc1 [Paraquat]
Settings	fitness
B. subtilis 168 [1], first compound 0.002 µg/mL, partner 1.25 µg/mL	0.964
B. subtilis 168 [1], first compound 0.002 µg/mL, partner 2.5 µg/mL	0.922
B. subtilis 168 [1], first compound 0.002 µg/mL, partner 5 µg/mL	0.725
B. subtilis 168 [1], first compound 0.004 µg/mL, partner 1.25 µg/mL	0.917
B. subtilis 168 [1], first compound 0.004 µg/mL, partner 2.5 µg/mL	0.864
B. subtilis 168 [1], first compound 0.004 µg/mL, partner 5 µg/mL	0.747
B. subtilis 168 [1], first compound 0.008 µg/mL, partner 1.25 µg/mL	0.861
B. subtilis 168 [1], first compound 0.008 µg/mL, partner 2.5 µg/mL	0.836
B. subtilis 168 [1], first compound 0.008 µg/mL, partner 5 µg/mL	0.665
S. aureus DSM 20231 [2], first compound 0.0156 µg/mL, partner 1.25 µg/mL	0.909
S. aureus DSM 20231 [2], first compound 0.0156 µg/mL, partner 2.5 µg/mL	0.892
S. aureus DSM 20231 [2], first compound 0.0156 µg/mL, partner 5 µg/mL	0.865
S. aureus DSM 20231 [2], first compound 0.0312 µg/mL, partner 1.25 µg/mL	0.704
S. aureus DSM 20231 [2], first compound 0.0312 µg/mL, partner 2.5 µg/mL	0.688
S. aureus DSM 20231 [2], first compound 0.0312 µg/mL, partner 5 µg/mL	0.63
S. aureus DSM 20231 [2], first compound 0.0625 µg/mL, partner 1.25 µg/mL	0.466
S. aureus DSM 20231 [2], first compound 0.0625 µg/mL, partner 2.5 µg/mL	0.599
S. aureus DSM 20231 [2], first compound 0.0625 µg/mL, partner 5 µg/mL	0.498
S. aureus Newman [3], first compound 0.0156 µg/mL, partner 1.25 µg/mL	0.792
S. aureus Newman [3], first compound 0.0156 µg/mL, partner 2.5 µg/mL	0.779
S. aureus Newman [3], first compound 0.0156 µg/mL, partner 5 µg/mL	0.795
S. aureus Newman [3], first compound 0.0312 µg/mL, partner 2.5 µg/mL	0.688
S. aureus Newman [3], first compound 0.0312 µg/mL, partner 5 µg/mL	0.687
S. aureus Newman [3], first compound 0.0625 µg/mL, partner 2.5 µg/mL	0.604
S. aureus Newman [3], first compound 0.0625 µg/mL, partner 5 µg/mL	0.587
S. pneumoniae D39V [4], first compound 0.01 µg/mL, partner 1.5 µg/mL	0.986
S. pneumoniae D39V [4], first compound 0.01 µg/mL, partner 3 µg/mL	0.986
S. pneumoniae D39V [4], first compound 0.01 µg/mL, partner 6 µg/mL	0.96
S. pneumoniae D39V [4], first compound 0.02 µg/mL, partner 1.5 µg/mL	0.939
S. pneumoniae D39V [4], first compound 0.02 µg/mL, partner 3 µg/mL	0.961
S. pneumoniae D39V [4], first compound 0.02 µg/mL, partner 6 µg/mL	0.928
S. pneumoniae D39V [4], first compound 0.04 µg/mL, partner 3 µg/mL	0.538
S. pneumoniae D39V [4], first compound 0.04 µg/mL, partner 6 µg/mL	0.483

fitness, B. subtilis 168 [1], one replicate
Settings	first compound 0.075 µg/mL	first compound 0.15 µg/mL	first compound 0.3 µg/mL
partner 1.25 µg/mL	0.512	0.0497	0.0541
partner 2.5 µg/mL	0.326	0.054	0.0573
partner 5 µg/mL	0.0786	0.0366	0.0407

Settings	Bliss interaction score
B. subtilis 168 [5]	-0.0872
S. aureus DSM 20231 [6]	-0.0577
S. aureus Newman [7]	-0.0522
S. pneumoniae D39V [8]	0.0963
